Article PMC9686139, “Furanoditerpenes from Spongia (Spongia) tubulifera Display Mitochondrial-Mediated Neuroprotective Effects by Targeting Cyclophilin D” (ACS Chemical Neuroscience, 2022)
Where “and” joins values, the source holds several entries; their conditions need not be identical. Identical values can stand only once.

Assays:
human CypD = human CypD (Homo sapiens, UniProt P30405); assay: Surface plasmon resonance binding to immobilized CypD; conditions: for kon: read-out: ka, CypD
Experimental: With this objective, surface plasmon resonance (SPR) experiments were performed. CypD was immobilized in the sensor surface as a ligand, and 1–5 were injected as analytes. […] For immobilization, amine groups were activated with 1-ethyl-3-(3-dimethylaminopropyl)carbodiimide hydrochloride (EDC) and N-hydroxysuccinimide (NHS) and 50 μg/mL of human CypD dissolved in 5 mM sodium acetate (pH 4.5) was added. […] All of the assays were carried out with phosphate-buffered saline (PBS)—0.05% Tween (pH 7.2) as the running buffer, with a flow rate of 20 μL/min at 24 °C.
The left panels present association curves obtained by the addition of compounds over immobilized CypD and subtraction of their respective solvent control. The right panels show fitting curves for equilibrium binding. Representative graphs of one independent replicate. […] All injections were performed using PBS, 0.05% Tween (pH 7.2) as the running buffer. Kinetic equilibrium dissociation constants (KD) and fitting curves were obtained with TraceDrawer software.
(§2) SPR measurements were performed using the MP-SPR Navi 210A VASA instrument with SPR Navi Control software (BioNavis, Tampere, Finland). All of the analyses were carried out in three-dimensional (3D) carboxymethyl dextran hydrogel-coated (CMD-3DM) sensors (BioNavis). PBS, 0.05% Tween (pH 7.2) was used as the running buffer for sensor activation, protein immobilization, and analyte injection. All buffers were degassed and filtered by 0.22 μm before use. The flow rate and temperature were set at 20 μL/min and 24 °C, respectively. A commercial Amine Coupling Kit (Xantec bioanalytics GmbH, Düsseldorf, Germany) was used for sensor activation and Cyps immobilization. The chip surface was preconditioned with 2 M NaCl and 0.01 M NaOH. Then, the surface was activated by the addition of 0.2 M 1-ethyl-3-(3-dimethylaminopropyl)carbodiimide hydrochloride (EDC) and 0.05 M N-hydroxysuccinimide (NHS). After activation, 50 μg/mL of CypA or CypD dissolved in 5 mM sodium acetate buffer (pH 4.5) were injected for immobilization on the sensor surface. […] Compound injections were performed in serial mode, and the reference channel signal was subtracted from the analyte sensorgram. Data were processed with MP-SPR Navi Data Viewer (BioNavis), and KD values were obtained using the 1:1 Langmuir model with mass transport considerations of TraceDrawer software (RidgeView Instruments Ab, Uppsala, Sweden). All of the experiments were performed three independent times.

SH-SY5Y cells [1] = assay: ROS intracellular levels, carboxy-H2DCFDA; type: cell-based, human
Experimental: Next, the capacity of S. tubulifera metabolites to decrease ROS intracellular levels was evaluated (Figure 4). […] Regarding the oxidative stress model, H2O2 augmented the levels of oxidant molecules up to 125.1 ± 2.4% (p < 0.01) and the known antioxidant Vit E, used as a positive control, induced a reduction in ROS release of 24% with respect to cells treated only with H2O2 (p < 0.05).
Figure 4 ROS intracellular levels after treatment with compounds. Furanoditerpenes were added for 6 h in the absence and presence of 150 μM H2O2. Then, the ROS content was measured with the fluorescent dye 5-(and-6)-carboxy-2′,7′-dichlorodihydrofluorescein diacetate (carboxy-H2DCFDA). Results from (a) 1, (b) 2, (c) 3, (d) 4, and (e) 5. Vitamin E (Vit E) at 25 μM was used as a positive control. Data expressed as the percentage of untreated control cells. Mean ± SEM of three experiments performed in triplicate. Statistical differences determined by one-way ANOVA test followed by Dunnett’s post hoc test. ^##p < 0.01 compared to control cells. *p < 0.05, **p < 0.01, and ***p < 0.01 compared to H2O2 control.
(§1) For these experiments, cells were seeded in 384-well plates and treated as described above. All of the assays were carried out as previously described.[15]
The fluorescent dye 5-(and-6)-carboxy-2′,7′-dichlorodihydrofluorescein diacetate (carboxy-H2DCFDA) was used to evaluate ROS levels. After treatment with compounds and H2O2, cells were washed twice with serum-free medium. Next, cells were loaded with 20 μM carboxy-H2DCFDA dissolved in serum-free medium, and the plate was incubated for 1 h at 37 °C and 300 rpm. Then, 100 μL of PBS were added to each well for 30 min at 37 °C and 300 rpm. After this incubation, the fluorescence was read at […].

CypD = CypD expression by Western blot
Description: (b) CypD expression after treatment with S. tubulifera metabolites. (c) Effect of compounds on the CypD expression under oxidative stress conditions. […] Protein band expression was normalized by actin levels. Results are mean ± SEM of three replicates carried out in duplicate. Data expressed as the percentage of untreated control cells and H2O2 control. Values compared by one-way ANOVA and Dunnett’s tests. ^#p < 0.05 and ^##p < 0.01 compared to control cells. *p < 0.05 and **p < 0.01 compared to cells treated with H2O2 alone.
In this context, the expression of this protein was analyzed after treatment with compounds. CypD cytosolic levels were evaluated after treatment with 1–5 alone for 6 h and after the coaddition of diterpenes and H2O2 to get a complete insight into diterpene mitochondria-related effects.
SH-SY5Y cells were cultured in 12-well plates at 1 × 10^6 cells per well and allowed to settle down for 24 h.
Cells were washed twice with ice-cold PBS, and a hypotonic solution was added (20 mM tris–HCl pH 7.4, 10 mM NaCl, and 3 mM MgCl2, containing phosphatase and protease inhibitor cocktail). Cells were incubated for 15 min on ice and centrifuged at 3000 rpm and 4 °C for 15 min. The supernatant was collected as the cytosolic fraction, and protein concentration was quantified with the Direct Detect instrument (Merck Millipore, Darmstadt, Germany).[15]
Electrophoresis was resolved in 4–20% sodium dodecyl sulfate polyacrylamide gels (Biorad, Hercules, CA), containing 15 μg of cytosolic protein from each sample. The Trans-Blot semidry transfer cell (Biorad) was used to transfer proteins to poly(vinylidene difluoride) (PVDF) membranes (Merck Millipore). Snap i.d. system (Merck Millipore) was used for membrane blocking and antibody incubation. […] Immunoreactive bands were detected with Supersignal West Pico Luminiscent Substrate and Supersignal West Femto Maximum Sensitivity Substrate. Diversity GeneSnap system and software (Syngene, Cambridge, U.K.) were used for protein band detection. Experiments were performed three independent times in duplicate.

SH-SY5Y cells [2] = assay: GSH content, Thiol Tracker Violet; type: cell-based, human; conditions: for GSH content: 150 μM H2O2, 6 h, % of untreated control cells
Experimental: To confirm the antioxidant properties of S. tubulifera compounds, the levels of the most important nonenzymatic antioxidant of cells, glutathione (GSH), were assessed. […] Regarding diterpene 2, an increase in the nonenzymatic antioxidant was observed when cells were cotreated with H2O2 and this compound at 0.001 and 1 μM (p < 0.05) (Figure 5b). No effects were found after the addition of 3 (Figure 5c), but 4 and 5 presented interesting results (Figure 5d,e).
Figure 5 Effect of S. tubulifera metabolites in the GSH content of human neuroblastoma cells. SH-SY5Y cells were treated with compounds for 6 h with and without 150 μM H2O2. GSH levels were monitored with Thiol Tracker Violet dye. (a) Compound 1, (b) compound 2, (c) compound 3, (d) compound 4, and (e) compound 5 results. Vitamin E (Vit E) at 25 μM was used as a positive control. Mean ± SEM of three experiments performed in triplicate. Data presented as the percentage of untreated control cells and compared by one-way ANOVA and Dunnett’s tests. ^##p < 0.01 compared to control cells. *p < 0.05 compared to cells treated with H2O2 alone.
as §1
Thiol Tracker Violet was used to measure intracellular GSH levels, following the manufacturer’s instructions. Briefly, human neuroblastoma cells were rinsed twice with PBS and the fluorescence dye at 10 μM was added. The plate was incubated for 30 min at 37 °C and 300 rpm, and the fluorescence was measured at 404 nm excitation and 526 nm emission in a plate reader. All experiments were performed three independent times in triplicate.

ERK = ERK activation (phosphorylated/total) by Western blot; type: cell-based, human
Description: Considering that CypD has several upstream regulators, which are also considered mPTP modulators,[10] the study was continued by evaluating if S. tubulifera metabolites were affecting the activation of two kinases involved in the control of mPTP by CypD, ERK, and GSK3β (Figure 7). Regarding ERK, its activation has been related to the inhibition of CypD-mediated mPTP opening. Therefore, the phosphorylated state of residues implicated in ERK activation (Thr202, Tyr204, Thr185, and Tyr187) was determined, as well as its total levels. Any of the compounds were able to activate ERK under neither physiological nor oxidative conditions (Figure 7a,b). However, 3 inhibited the kinase in both situations, with levels of 78.6 ± 4.8% (p < 0.05) and 67.3 ± 9.4% (p < 0.01), respectively. […] On the other hand, GSK3β inhibition results in a reduction in mPTP opening since the kinase binds to CypD, decreasing its interaction with mPTP components.[10] In the case of GSK3β, Ser9 phosphorylation was determined, a residue implicated in kinase inhibition (Figure 7c,d).
Figure 7 Analysis of compound effects on CypD upstream regulators. SH-SY5Y cells were treated with 1–5 at 0.001 μM for 6 h, and their effects on kinase activation were evaluated. […] Kinase expression was calculated as the ratio between phosphorylated and total levels. […] Data expressed as the percentage of untreated control cells and H2O2 control. […]

Human CypA = Human CypA (Homo sapiens, UniProt P62937); assay: Surface plasmon resonance binding to immobilized CypA; conditions: for Kd: CypA, SPR, 1:1 Langmuir model, PBS-T pH 7.2, 24 °C; for kon: read-out: ka, CypA
Chain of Human CypA (P62937 whole entry): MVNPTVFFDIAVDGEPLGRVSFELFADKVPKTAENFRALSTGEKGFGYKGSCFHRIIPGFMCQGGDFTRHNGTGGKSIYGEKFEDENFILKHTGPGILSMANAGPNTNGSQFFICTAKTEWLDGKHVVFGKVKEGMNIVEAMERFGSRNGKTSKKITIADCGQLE
Experimental: The protein was immobilized on the sensor surface by amino coupling, as described above (Figure S7), and compounds at several concentrations were added. The same conditions set for CypD were used for CypA experiments, with a flow rate of 20 μL/min and PBS-T (pH 7.2) as the running buffer.
Figure 9 Binding of compounds to CypA measured by surface plasmon resonance. The left panels present association curves obtained by the addition of compounds over immobilized CypA and subtraction of their respective vehicle signal. The right panels show fitting curves for equilibrium binding. Representative graphs of one independent replicate. […] Kinetic equilibrium dissociation constants (KD) and fitting curves were obtained with TraceDrawer software.
as §2

[3] = test system: mitochondrial permeability transition pore (mPTP); assay: mPTP opening, calcein-AM/CoCl2 flow cytometry; conditions: 0.001 μM, 15 min pretreatment, TBHP 3 min
Experimental: (§3) SH-SY5Y cells were treated for 15 min with 1–5, and 1 mM tert-butyl hydroperoxide (TBHP) was used to open the pore. Cells were loaded with calcein-AM, which accumulates in cytosol and cell compartments and with CoCl2 that quenches cytosolic fluorescence but not the mitochondrial signal.[17] Then, fluorescence was analyzed by flow cytometry (Figure 6a). […] (a) Analysis of mPTP opening. Cells were treated with compounds at 0.001 μM for 15 min, and pore opening was induced with 1 mM TBHP. Calcein-AM and CoCl2 were used to measure mPTP aperture by flow cytometry. […] Values are presented as the percentage of control cells. Data are mean ± SEM of three independent experiments. Statistical differences determined by one-way ANOVA and Dunnett’s tests. ^###p < 0.001 compared to control cells. *p < 0.05 and **p < 0.01 compared to cells treated only with TBHP.
(§4) The inhibition of mPTP by compounds was determined with the MitoProbe Transition Pore Assay Kit, as previously described.[21] For this assay, cells were seeded in 12-well plates at 5 × 10^5 cells per well and allowed to grow for 24 h. Then, SH-SY5Y cells were detached with Detachin solution (Genlatis, San Diego), washed with PBS, and resuspended in PBS buffer with 0.6 mM CaCl2. Cells were loaded with 0.01 μM calcein-AM and incubated at 37 °C for 15 min. Then, 0.4 mM CoCl2 and compounds at 0.001 μM were added and cells were incubated for 15 min at 37 °C. After this incubation, cells were centrifuged, resuspended in 100 μL of calcium-free PBS, and kept on ice. Finally, TBHP at 1 mM was added for 3 min to the cells to induce the pore opening. […] The fluorescence of 10 000 events was analyzed with IDEAS Application vs 6.0 (Amnis Corporation, Luminex Corp).

[4] = test system: mitochondrial permeability transition pore (mPTP); conditions: 0.25 h, 0.001 µM
Experimental: as §3, §4

Chain of human CypD (P30405 30-207): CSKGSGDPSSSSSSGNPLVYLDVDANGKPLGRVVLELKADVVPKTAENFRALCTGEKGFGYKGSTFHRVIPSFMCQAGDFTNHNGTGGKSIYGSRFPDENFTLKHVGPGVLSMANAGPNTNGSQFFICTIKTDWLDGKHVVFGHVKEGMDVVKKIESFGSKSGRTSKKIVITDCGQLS

Molecule: CC1=C(O)C(=O)C[C@]2(C)[C@H]3CCc4cocc4[C@]3(C)CC[C@@H]12 [Compound 3]
- Kd (human CypD): 7 ± 0.04 µM
- kon (human CypD): 3750 M⁻¹ s⁻¹
- effect on ROS content (SH-SY5Y cells [1]; cotreatment with 150 μM H2O2, 6 h, all four concentrations 0.001-1 μM): diminished ROS levels
- effect on CypD expression (CypD; 0.001 μM): did not affect CypD expression
- effect on GSH content (SH-SY5Y cells [2]; compound alone and with 150 μM H2O2, 6 h): No effects
- ERK activation (phosphorylated/total) (ERK; compound 0.001 μM + 150 μM H2O2, 6 h, % of H2O2 control): 67.3 ± 9.4%
- ERK activation (phosphorylated/total) (ERK; compound alone 0.001 μM, 6 h, % of untreated control cells): 78.6 ± 4.8%
- Kd (Human CypA): 6.39 µM and 6.4 µM
- kon (Human CypA): 3190 M⁻¹ s⁻¹

Molecule: Vitamin E [Vit E, reference compound]
- reduction in ROS release with respect to cells treated only with H2O2 (SH-SY5Y cells [1]; Vit E 25 μM, 150 μM H2O2, 6 h): 24%

Molecule: C[C@]12C=C(O)C(=O)[C@](C)(CO)[C@@H]1CC[C@@]1(C)c3cocc3CC[C@H]21 [Compound 5, spongian diterpene 17]
- Kd (human CypD): 2.97 ± 0.01 µM
- selectivity between CypD and CypA (KD values) (human CypD; SPR, CypD versus CypA): selectivity toward the mitochondrial isoform
- kon (human CypD): 10000 M⁻¹ s⁻¹
- CypD expression under oxidative damage (CypD; compound 0.001 μM + 150 μM H2O2, 6 h, % of H2O2 control cells): about 54%
- inhibition of mPTP opening after oxidative injury [3]: able to inhibit mPTP opening
- GSH content (SH-SY5Y cells [2]; compound 0.001 μM): 110.9 ± 10.0%
- GSH content (SH-SY5Y cells [2]; compound 0.1 μM): 118.9 ± 12.0%
- calcein fluorescence (mPTP opening) [4]: 90.3 ± 5.3%
- maximum SPR signal, CypA (Human CypA): 13.6 mdeg
- Kd (Human CypA): 4.34 µM and 4.3 µM
- kon (Human CypA): 3590 M⁻¹ s⁻¹
